Results: US11045448B2, “Piperidines as covalent menin inhibitors” (THE REGENTS OF THE UNIVERSITY OF MICHIGAN, priority 2017, dated 2021)

Molecular target: menin protein (Homo sapiens (Human), UniProt O00255)
Assay: Fluorescence polarization (FP) competitive binding assay, menin binding affinity
Conditions: menin protein 4 nM, probe 2 nM, room temperature 30 minutes
Procedure: A fluorescence polarization (FP) competitive binding assay was used to determine the binding affinities of representative menin inhibitors. A FAM labeled fluorescent probe was designed and synthesized based on a MLL1 peptide (FAM-MM2). Equilibrium dissociation constant (Kd) value of FAM-MM2 to menin protein was determined from protein saturation experiments by monitoring the total fluorescence polarization of mixtures composed with the fluorescent probe at a fixed concentration and the protein with increasing concentrations up to full saturation. Serial dilutions of the protein were mixed with FAM-MM2 to a final volume of 200 μl in the assay buffer (PBS with 0.02% Bovine γ-Globulin and 4% DMSO. 0.01% Triton X-100 was added right before assays). Final FAM-MM2 concentration was 2 nM. Plates were incubated at room temperature for 30 minutes with gentle shaking to assure equilibrium. FP values in millipolarization units (mP) were measured using the Infinite M-1000 plate reader (Tecan U.S., Research Triangle Park, N.C.) in Microfluor 1 96-well, black, v-bottom plates (Thermo Scientific, Waltham, Mass.) at an excitation wavelength of 485 nm and an emission wavelength of 530 nm.
The IC50, see Table 3, of representative Compounds of the Disclosure were determined in a competitive binding experiment. Mixtures of 5 μl of the tested compounds in DMSO and 195 μl of preincubated protein/probe complex solution in the assay buffer were added into assay plates which were incubated at room temperature for 30 minutes with gentle shaking. Final concentration of the menin protein was 4 nM, and final probe concentration is 2 nM. Negative controls containing protein/probe complex only (equivalent to 0% inhibition), and positive controls containing only free probes (equivalent to 100% inhibition), were included in each assay plate. FP values were measured as described above. IC50 values were determined by nonlinear regression fitting of the competition curves.

menin protein, sequence (O00255 whole entry): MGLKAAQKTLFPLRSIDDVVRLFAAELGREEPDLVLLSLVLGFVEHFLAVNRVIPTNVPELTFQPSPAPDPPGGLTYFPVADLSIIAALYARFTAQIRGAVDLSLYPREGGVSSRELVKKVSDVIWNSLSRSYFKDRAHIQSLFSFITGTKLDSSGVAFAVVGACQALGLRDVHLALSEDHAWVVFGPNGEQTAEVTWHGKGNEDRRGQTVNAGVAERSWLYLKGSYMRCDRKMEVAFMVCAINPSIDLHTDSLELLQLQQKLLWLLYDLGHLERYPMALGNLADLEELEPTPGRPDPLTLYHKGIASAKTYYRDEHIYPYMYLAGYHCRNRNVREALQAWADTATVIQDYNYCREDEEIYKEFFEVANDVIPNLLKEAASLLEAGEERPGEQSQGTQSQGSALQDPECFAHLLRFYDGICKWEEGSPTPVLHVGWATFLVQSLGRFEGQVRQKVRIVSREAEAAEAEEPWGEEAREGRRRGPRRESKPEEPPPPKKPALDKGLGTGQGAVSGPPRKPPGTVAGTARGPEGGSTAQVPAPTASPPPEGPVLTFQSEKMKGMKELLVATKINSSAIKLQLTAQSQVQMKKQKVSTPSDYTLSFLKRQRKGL

| IC50 [nM] | Structure (SMILES) |
| --- | --- |
| > 10000 | C=CC(=O)Nc1cccc(S(=O)(=O)c2ccc(N3CC(CN4CCC([C@](C#N)(c5cccc(F)c5)[C@H]5CCC[C@@H]5NC(=O)OC)CC4)C3)cc2)c1 [Cpd. No. 70, methyl ((1S,2R)-2-((R)-(1-((1-(4-((3-acrylamidophenyl)sulfonyl)phenyl)azetidin-3-yl)methyl)piperidin-4-yl)(cyano)(3-fluorophenyl)methyl)cyclopentyl)carbamate] |
| 1 | CCc1nccn1C[C@@](c1cccc(F)c1)(C1CCN(CC2(F)CN(c3ccc(S(=O)(=O)C4CN(C(=O)/C=C/CN(C)C)C4)cc3)C2)CC1)[C@H]1CCC[C@@H]1NC(=O)OC [Cpd. No. 66, methyl ((1S,2R)-2-((S)-1-(1-((1-(4-((1-((E)-4-(dimethylamino)but-2-enoyl)azetidin-3-yl)sulfonyl)phenyl)-3-fluoroazetidin-3-yl)methyl)piperidin-4-yl)-2-(2-ethyl-1H-imidazol-1-yl)-1-(3-fluorophenyl)ethyl)cyclopentyl)carbamate] |
| 2 | C=CC(=O)Nc1cccc(S(=O)(=O)c2ccc(N3CC(F)(CN4CCC([C@@](Cn5ccnc5CC)(c5cccc(F)c5)[C@H]5CCC[C@@H]5NC(=O)OC)CC4)C3)cc2)c1 [Cpd. No. 9, methyl ((1S,2R)-2-((S)-1-(1-((1-(4-((3-acrylamidophenyl)sulfonyl)phenyl)-3-fluoroazetidin-3-yl)methyl)piperidin-4-yl)-2-(2-ethyl-1H-imidazol-1-yl)-1-(3-fluorophenyl)ethyl)cyclopentyl)carbamate] |
| 7 | C=CC(=O)N[C@H]1CCC[C@@H]1[C@](C#N)(c1cccc(F)c1)C1CCN(CC2CN(c3ccc(C#N)cc3)C2)CC1 [Cpd. No. 80, N-((1S,2R)-2-((S)-cyano(1-((1-(4-cyanophenyl)azetidin-3-yl)methyl)piperidin-4-yl)(3-fluorophenyl)methyl)cyclopentyl)acrylamide] |
| 2 | C=CC(=O)Nc1ccc(S(=O)(=O)c2ccc(N3CC(CN4CCC([C@@](C#N)(c5cccc(F)c5)[C@H]5CCC[C@@H]5OC(=O)NC)CC4)C3)cc2)cc1 [Cpd. No. 10, (1S,2R)-2-((S)-(1-((1-(4-((4-acrylamidophenyl)sulfonyl)phenyl)azetidin-3-yl)methyl)piperidin-4-yl)(cyano)(3-fluorophenyl)methyl)cyclopentyl methylcarbamate] |
| 4 | COC(=O)N[C@H]1CCC[C@@H]1[C@](C#N)(c1cccc(F)c1)C1CCN(CC2CN(c3ccc(S(=O)(=O)C4CN(C(=O)/C=C/CN5CCOCC5)C4)cc3)C2)CC1 [Cpd. No. 59, methyl ((1S,2R)-2-((S)-cyano(3-fluorophenyl)(1-((1-(4-((1-((E)-4-morpholinobut-2-enoyl)azetidin-3-yl)sulfonyl)phenyl)azetidin-3-yl)methyl)piperidin-4-yl)methyl)cyclopentyl)carbamate] |
| 4 | COC(=O)N[C@H]1CCC[C@@H]1[C@](C#N)(c1cccc(F)c1)C1CCN(CC2CN(c3ccc(S(=O)(=O)C4CN(C(=O)/C=C/CN5CCCCC5)C4)cc3)C2)CC1 [Cpd. No. 71, methyl ((1S,2R)-2-((S)-cyano(3-fluorophenyl)(1-((1-(4-((1-((E)-4-(piperidin-1-yl)but-2-enoyl)azetidin-3-yl)sulfonyl)phenyl)azetidin-3-yl)methyl)piperidin-4-yl)methyl)cyclopentyl)carbamate] |
| 2 | C=CC(=O)N1CC(S(=O)(=O)c2ccc(N3CC(F)(CN4CCC([C@@](Cn5ccnc5CC)(c5cccc(F)c5)[C@H]5CCC[C@@H]5NC(=O)OC)CC4)C3)cc2)C1 [Cpd. No. 16, methyl ((1S,2R)-2-((S)-1-(1-((1-(4-((1-acryloylazetidin-3-yl)sulfonyl)phenyl)-3-fluoroazetidin-3-yl)methyl)piperidin-4-yl)-2-(2-ethyl-1H-imidazol-1-yl)-1-(3-fluorophenyl)ethyl)cyclopentyl)carbamate] |
| 4 | C#CC(=O)N[C@H]1CCC[C@@H]1[C@](C#N)(c1cccc(F)c1)C1CCN(CC2CN(c3ccc(C#N)cc3)C2)CC1 [compound 82, N-((1S,2R)-2-((S)-cyano(1-((1-(4-cyanophenyl)azetidin-3-yl)methyl)piperidin-4-yl)(3-fluorophenyl)methyl)cyclopentyl)propiolamide] |
| 6 | COC(=O)N[C@H]1CCC[C@@H]1[C@](C#N)(c1cccc(F)c1)C1C[C@@H](C)N(CC2CN(c3ccc(S(=O)(=O)C4CN(C(=O)/C=C/CN(C)C)C4)cc3)C2)[C@@H](C)C1 (stereo partly drawn) [Cpd. No. 75, methyl ((1S,2R)-2-((1S)-cyano((2R,6S)-1-((1-(4-((1-((E)-4-(dimethylamino)but-2-enoyl)azetidin-3-yl)sulfonyl)phenyl)azetidin-3-yl)methyl)-2,6-dimethylpiperidin-4-yl)(3-fluorophenyl)methyl)cyclopentyl)carbamate] |
| 7 | COC(=O)N[C@H]1CCC[C@@H]1[C@](C#N)(c1cccc(F)c1)C1CCN(CCCOc2ccc(S(=O)(=O)C3CN(C(=O)/C=C/CN(C)C)C3)cc2)CC1 [Cpd. No. 68, methyl ((1S,2R)-2-((S)-cyano(1-(3-(4-((1-((E)-4-(dimethylamino)but-2-enoyl)azetidin-3-yl)sulfonyl)phenoxy)propyl)piperidin-4-yl)(3-fluorophenyl)methyl)cyclopentyl)carbamate] |
| 2 | COC(=O)N[C@H]1CCC[C@@H]1[C@](C#N)(c1cccc(F)c1)C1CCN(CC2CN(c3ccc(S(=O)(=O)c4cccc(NC(=O)/C=C/CN(C)C)c4)cc3)C2)CC1 [Cpd. No. 63, methyl ((1S,2R)-2-((S)-cyano(1-((1-(4-((3-((E)-4-(dimethylamino)but-2-enamido)phenyl)sulfonyl)phenyl)azetidin-3-yl)methyl)piperidin-4-yl)(3-fluorophenyl)methyl)cyclopentyl)carbamate] |
| > 10000 | C=CC(=O)N1CC(S(=O)(=O)c2ccc(OCCOc3ccc([C@](C#N)(c4cccc(F)c4)[C@H]4CCC[C@@H]4NC(=O)OC)cc3)cc2)C1 [Cpd. No. 65, methyl ((1S,2R)-2-((S)-(4-(2-(4-((1-acryloylazetidin-3-yl)sulfonyl)phenoxy)ethoxy)phenyl)(cyano)(3-fluorophenyl)methyl)cyclopentyl)carbamate] |
| 2 | C=CC(=O)N1CC(S(=O)(=O)c2ccc(N3CC(CN4CCC([C@@](Cn5ccnc5CC)(c5cccc(F)c5)[C@H]5CCC[C@@H]5NC(=O)OC)CC4)C3)cc2)C1 [Cpd. No. 8, methyl ((1S,2R)-2-((S)-1-(1-((1-(4-((1-acryloylazetidin-3-yl)sulfonyl)phenyl)azetidin-3-yl)methyl)piperidin-4-yl)-2-(2-ethyl-1H-imidazol-1-yl)-1-(3-fluorophenyl)ethyl)cyclopentyl)carbamate] |
| 4 | C/C=C/C(=O)Nc1cccc(S(=O)(=O)c2ccc(N3CC(CN4CCC([C@@](C#N)(c5cccc(F)c5)[C@H]5CCC[C@@H]5NC(=O)OC)CC4)C3)cc2)c1 [Cpd. No. 62, methyl ((1S,2R)-2-((S)-(1-((1-(4-((3-((E)-but-2-enamido)phenyl)sulfonyl)phenyl)azetidin-3-yl)methyl)piperidin-4-yl)(cyano)(3-fluorophenyl)methyl)cyclopentyl)carbamate] |
| 300 | C=CC(=O)Nc1cccc(S(=O)(=O)c2ccc(N3CC(CN4CCC([C@](C#N)(c5cccc(F)c5)[C@H]5CCC[C@@H]5OC(=O)NC)CC4)C3)cc2)c1 [Cpd. No. 4, (1S,2R)-2-((R)-(1-((1-(4-((3-acrylamidophenyl)sulfonyl)phenyl)azetidin-3-yl)methyl)piperidin-4-yl)(cyano)(3-fluorophenyl)methyl)cyclopentyl methylcarbamate] |
| 9 | N#Cc1ccc(N2CC(CN3CCC([C@@](C#N)(c4cccc(F)c4)[C@H]4CCC[C@@H]4NC(=O)CCl)CC3)C2)cc1 [compound 81, 2-chloro-N-((1S,2R)-2-((S)-cyano(1-((1-(4-cyanophenyl)azetidin-3-yl)methyl)piperidin-4-yl)(3-fluorophenyl)methyl)cyclopentyl)acetamide] |
| 4 | C=CC(=O)Nc1ccc(S(=O)(=O)c2ccc(N3CC(CN4CCC([C@@](C#N)(c5cccc(F)c5)[C@H]5CCC[C@@H]5NC(=O)OC)CC4)C3)cc2)cc1 [Cpd. No. 61, methyl ((1S,2R)-2-((S)-(1-((1-(4-((4-acrylamidophenyl)sulfonyl)phenyl)azetidin-3-yl)methyl)piperidin-4-yl)(cyano)(3-fluorophenyl)methyl)cyclopentyl)carbamate] |
| 1070 | C=CS(=O)(=O)N[C@H]1CCC[C@@H]1[C@](C#N)(c1cccc(F)c1)C1CCN(CC2CN(c3ccc(C#N)cc3)C2)CC1 [Cpd. No. 79, N-((1S,2R)-2-((S)-cyano(1-((1-(4-cyanophenyl)azetidin-3-yl)methyl)piperidin-4-yl)(3-fluorophenyl)methyl)cyclopentyl)ethenesulfonamide] |
